Test results from paper PMC5064435, “Inhibition of endoplasmic reticulum glucosidases is required for in vitro and in vivo dengue antiviral activity by the iminosugar UV-4” (Antiviral Research, 2016).
Structures can show the parent of a compound that is named as a salt.

Experiments:
[1] = biological target: T1, Human lysosome (α-glucosidase) (Homo sapiens, UniProt P10253); test: enzyme inhibition assay; assay type: biochemical; settings: read-out: IC50 ^a / UV-4B
T1 construct: gene GAA
Text: enzyme inhibition assay on Human lysosome (α-glucosidase)

[2] = biological target: T2, Rat intestinal isomaltase (Rattus norvegicus, UniProt P23739); test: enzyme inhibition assay; assay type: biochemical; settings: read-out: IC50 ^a / UV-4B
T2 construct: gene Si; native rat intestinal enzyme; isomaltase (N-terminal) subunit of sucrase-isomaltase
T2 sequence (P23739 1-1013 limits assumed): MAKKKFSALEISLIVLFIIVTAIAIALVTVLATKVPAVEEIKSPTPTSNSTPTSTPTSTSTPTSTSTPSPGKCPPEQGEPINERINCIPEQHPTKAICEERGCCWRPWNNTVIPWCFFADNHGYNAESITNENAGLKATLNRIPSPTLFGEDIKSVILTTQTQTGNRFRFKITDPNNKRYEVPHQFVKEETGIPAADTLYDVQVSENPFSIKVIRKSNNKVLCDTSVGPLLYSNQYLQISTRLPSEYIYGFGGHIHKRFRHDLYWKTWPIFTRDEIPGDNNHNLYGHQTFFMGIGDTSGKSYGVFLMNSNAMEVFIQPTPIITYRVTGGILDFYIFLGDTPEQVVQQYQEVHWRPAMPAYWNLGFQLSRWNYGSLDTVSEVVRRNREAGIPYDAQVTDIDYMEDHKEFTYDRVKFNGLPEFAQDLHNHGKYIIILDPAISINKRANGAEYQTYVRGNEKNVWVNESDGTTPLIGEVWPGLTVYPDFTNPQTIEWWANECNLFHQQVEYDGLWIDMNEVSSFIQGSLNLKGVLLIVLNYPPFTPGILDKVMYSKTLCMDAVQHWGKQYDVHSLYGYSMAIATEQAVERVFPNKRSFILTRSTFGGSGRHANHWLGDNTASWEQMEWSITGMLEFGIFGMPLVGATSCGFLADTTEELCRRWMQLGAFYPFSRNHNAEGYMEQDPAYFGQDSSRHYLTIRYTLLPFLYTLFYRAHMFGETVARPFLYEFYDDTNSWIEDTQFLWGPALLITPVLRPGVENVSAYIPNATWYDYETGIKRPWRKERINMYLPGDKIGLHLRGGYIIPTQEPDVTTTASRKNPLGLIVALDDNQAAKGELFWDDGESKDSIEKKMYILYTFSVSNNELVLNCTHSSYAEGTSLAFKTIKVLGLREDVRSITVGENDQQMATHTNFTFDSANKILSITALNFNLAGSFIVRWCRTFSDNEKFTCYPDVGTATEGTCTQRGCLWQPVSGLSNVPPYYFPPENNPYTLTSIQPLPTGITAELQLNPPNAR
Text: enzyme inhibition assay on Rat intestinal isomaltase

[3] = biological target: T3, α-glucosidase II (human MDMΦs) (Homo sapiens, UniProt Q14697); test: free oligosaccharide (Glc1Man4GlcNAc1) accumulation in human MDMΦs; assay type: cell-based; settings: […] h treatment of uninfected cells
T3 construct: gene GANAB; endogenous enzyme in primary human monocyte-derived macrophages; with Glucosidase 2 subunit beta
T3 sequence (Q14697 29-944): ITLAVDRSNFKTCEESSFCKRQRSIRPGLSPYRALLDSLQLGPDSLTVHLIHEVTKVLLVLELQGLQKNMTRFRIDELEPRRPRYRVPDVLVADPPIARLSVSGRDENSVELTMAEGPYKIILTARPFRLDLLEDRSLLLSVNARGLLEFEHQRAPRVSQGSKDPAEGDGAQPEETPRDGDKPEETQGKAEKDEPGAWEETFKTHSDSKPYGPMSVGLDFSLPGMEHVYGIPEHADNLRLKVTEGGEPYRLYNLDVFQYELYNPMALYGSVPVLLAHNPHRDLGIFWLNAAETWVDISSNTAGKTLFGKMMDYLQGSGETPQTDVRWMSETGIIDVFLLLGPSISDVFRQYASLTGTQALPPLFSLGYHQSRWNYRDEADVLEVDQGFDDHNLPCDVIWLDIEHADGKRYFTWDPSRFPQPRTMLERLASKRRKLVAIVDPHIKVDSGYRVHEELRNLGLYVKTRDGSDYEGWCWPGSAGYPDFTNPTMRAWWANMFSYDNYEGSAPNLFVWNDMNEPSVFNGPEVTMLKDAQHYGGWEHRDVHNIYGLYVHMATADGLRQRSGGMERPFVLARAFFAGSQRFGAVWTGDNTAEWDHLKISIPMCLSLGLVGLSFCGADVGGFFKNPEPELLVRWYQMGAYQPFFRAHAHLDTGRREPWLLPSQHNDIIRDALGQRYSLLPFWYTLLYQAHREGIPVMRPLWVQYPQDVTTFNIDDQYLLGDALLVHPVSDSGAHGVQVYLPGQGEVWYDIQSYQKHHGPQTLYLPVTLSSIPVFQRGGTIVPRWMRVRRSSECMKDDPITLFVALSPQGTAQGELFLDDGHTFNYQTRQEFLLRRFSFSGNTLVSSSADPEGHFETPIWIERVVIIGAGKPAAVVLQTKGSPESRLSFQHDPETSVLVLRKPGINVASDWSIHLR
T3 sequence (P14314 15-528 partner): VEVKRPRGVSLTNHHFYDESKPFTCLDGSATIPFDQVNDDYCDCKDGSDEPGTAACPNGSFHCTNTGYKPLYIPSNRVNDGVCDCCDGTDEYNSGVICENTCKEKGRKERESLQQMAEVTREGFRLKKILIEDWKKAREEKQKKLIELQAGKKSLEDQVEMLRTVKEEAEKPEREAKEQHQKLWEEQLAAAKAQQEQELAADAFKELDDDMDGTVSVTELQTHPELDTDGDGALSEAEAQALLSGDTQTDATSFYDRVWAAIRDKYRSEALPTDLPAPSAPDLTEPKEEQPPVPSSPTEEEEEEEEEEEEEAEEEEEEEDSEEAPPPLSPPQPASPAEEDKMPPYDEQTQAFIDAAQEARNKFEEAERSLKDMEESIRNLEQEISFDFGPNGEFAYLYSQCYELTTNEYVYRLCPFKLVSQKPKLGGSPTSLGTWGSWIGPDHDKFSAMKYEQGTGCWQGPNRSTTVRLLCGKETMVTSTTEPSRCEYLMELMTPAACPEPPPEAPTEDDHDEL

[4] = biological target: T4, α-glucosidase I (human MDMΦs) (Homo sapiens, UniProt Q13724); test: free oligosaccharide (Glc3Man5GlcNAc1) accumulation in human MDMΦs; assay type: cell-based; settings: […] h treatment of uninfected cells
T4 construct: gene MOGS; endogenous enzyme in primary human monocyte-derived macrophages
T4 sequence (Q13724 1-837): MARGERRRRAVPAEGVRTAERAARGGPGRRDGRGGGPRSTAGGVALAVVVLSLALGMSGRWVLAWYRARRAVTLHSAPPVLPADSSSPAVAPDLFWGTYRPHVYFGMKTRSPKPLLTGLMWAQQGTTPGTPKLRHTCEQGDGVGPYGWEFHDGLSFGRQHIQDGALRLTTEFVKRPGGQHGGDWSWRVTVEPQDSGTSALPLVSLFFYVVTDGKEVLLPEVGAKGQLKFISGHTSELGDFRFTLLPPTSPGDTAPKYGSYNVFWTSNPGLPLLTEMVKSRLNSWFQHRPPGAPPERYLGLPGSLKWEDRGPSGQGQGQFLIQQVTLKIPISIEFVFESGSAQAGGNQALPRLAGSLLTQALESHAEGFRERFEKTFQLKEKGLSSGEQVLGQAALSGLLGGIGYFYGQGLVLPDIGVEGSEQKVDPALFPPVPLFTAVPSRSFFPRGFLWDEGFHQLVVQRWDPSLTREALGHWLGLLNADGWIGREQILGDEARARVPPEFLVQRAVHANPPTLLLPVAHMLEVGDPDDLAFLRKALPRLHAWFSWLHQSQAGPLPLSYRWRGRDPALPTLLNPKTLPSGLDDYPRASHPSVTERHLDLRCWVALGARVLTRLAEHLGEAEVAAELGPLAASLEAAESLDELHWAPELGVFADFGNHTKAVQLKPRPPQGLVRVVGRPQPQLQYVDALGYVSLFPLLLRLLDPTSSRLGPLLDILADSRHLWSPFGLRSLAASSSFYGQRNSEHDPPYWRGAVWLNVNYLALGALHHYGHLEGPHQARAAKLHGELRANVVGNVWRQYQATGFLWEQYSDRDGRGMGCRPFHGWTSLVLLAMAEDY

[5] = biological target: T5, ceramide glucosyltransferase (HL60 glucosyltransferase) (Homo sapiens, UniProt Q16739); test: enzyme inhibition assay, enzyme isolated from HL60 cells; assay type: biochemical; settings: read-out: IC50 ^a / UV-4B
T5 construct: gene UGCG; native enzyme isolated from human promyelocytic HL60 cells
T5 sequence (Q16739 1-394): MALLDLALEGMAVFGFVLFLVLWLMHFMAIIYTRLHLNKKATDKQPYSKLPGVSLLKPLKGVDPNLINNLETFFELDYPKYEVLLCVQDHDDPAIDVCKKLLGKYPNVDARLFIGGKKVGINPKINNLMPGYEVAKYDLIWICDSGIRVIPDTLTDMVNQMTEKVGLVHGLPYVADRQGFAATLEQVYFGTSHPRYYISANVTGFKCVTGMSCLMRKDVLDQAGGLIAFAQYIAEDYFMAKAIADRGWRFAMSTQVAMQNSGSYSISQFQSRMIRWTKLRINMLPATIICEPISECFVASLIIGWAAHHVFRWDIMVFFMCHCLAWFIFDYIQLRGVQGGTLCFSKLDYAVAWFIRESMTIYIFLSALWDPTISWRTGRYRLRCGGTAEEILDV
Text: enzyme inhibition assay, enzyme isolated from HL60 cells on ceramide glucosyltransferase (HL60 glucosyltransferase)

COCCCCCCCCCN1C[C@H](O)[C@@H](O)[C@H](O)[C@H]1CO [UV-4B, N-(9′-methoxynonyl)-1-deoxynojirimycin hydrochloride]
IC50 [1]: 390 nM | IC50 [2]: 1400 nM | free oligosaccharide (Glc1Man4GlcNAc1) accumulation in human MDMΦs [3]: UV-4B led to accumulation of FOS representative of inhibition of both α-glucosidases | free oligosaccharide (Glc3Man5GlcNAc1) accumulation in human MDMΦs [4]: UV-4B led to accumulation of FOS representative of inhibition of both α-glucosidases | IC50 [5]: 390 nM
